Assay results from article PMC5477036, “Design and synthesis of biphenyl and biphenyl ether inhibitors of sulfatases” (Chemical Science, 2016).

Assays:
Format in all cases: biochemical
aryl sulfatase B (ARSB) = target: T1, aryl sulfatase B (ARSB) (Homo sapiens, UniProt P15848); test: ARSB inhibition assay with 4-MUS substrate; conditions: for inhibition at 1000 µM: 1 mM compound, 4-MUS substrate, means of two or more determinations, read-out: ARSB% inh @ 1 mM; for IC50: non-linear regression, 7 inhibitor concentrations in duplicate, mean ± SEM
T1 construct: purchased R & D Systems
T1 sequence (P15848 37-533, species assumed): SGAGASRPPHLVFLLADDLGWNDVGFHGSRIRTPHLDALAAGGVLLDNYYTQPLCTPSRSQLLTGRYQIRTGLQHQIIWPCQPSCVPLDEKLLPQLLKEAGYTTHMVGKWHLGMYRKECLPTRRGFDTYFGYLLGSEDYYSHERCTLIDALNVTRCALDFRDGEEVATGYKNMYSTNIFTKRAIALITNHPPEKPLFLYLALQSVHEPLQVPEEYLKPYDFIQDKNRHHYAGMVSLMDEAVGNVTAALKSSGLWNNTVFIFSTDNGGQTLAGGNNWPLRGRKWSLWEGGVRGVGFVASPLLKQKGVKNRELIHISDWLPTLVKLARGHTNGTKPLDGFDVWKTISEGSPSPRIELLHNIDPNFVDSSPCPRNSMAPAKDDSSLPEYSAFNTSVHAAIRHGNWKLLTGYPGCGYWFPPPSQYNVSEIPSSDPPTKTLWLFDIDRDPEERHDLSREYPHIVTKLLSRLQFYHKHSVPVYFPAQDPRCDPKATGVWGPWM
Experimental: (§1) Compounds were assayed for their ability to inhibit the Sulf-2-catalysed desulfation of 4-methylumbelliferyl sulfate (4-MUS) to the fluorescent 4-methylumbelliferone (MU). To determine their sulfatase selectivity, inhibition of aryl sulfatases A (ARSA) and B (ARSB) was also assessed. To date no suitable benchmark inhibitors of these sulfatase have been reported. […] In the majority of cases the presence of a substituent on the B-ring was detrimental to Sulf-2 inhibition when compared with unsubstituted biphenyl sulfamate 76. Aminosulfates 54 and 62 and carboxylic acid 15 retained potency. […] Compounds 8, 10, 15, 50 and 51 were also relatively potent ARSA inhibitors. […] Aminosulfates 56 and 63 were the best Sulf-2 inhibitors lacking a trichloroethylsulfamate group.
(§2) 1 – Biological assay protocols […]
(§3) Omega data analysis software.
(§4) ARSA and ARSB assay protocols
(§5) Compounds were screened in a 96-well black plate (Sterilin) using 4-MUS as a substrate, using 50 μL reaction mixture containing 40 ng of the commercially available enzymes (ARSA or ARSB from R & D Systems), 50 mM HEPES (pH = 4.5), 10 mM CaCl2, 1 mM test compound (dissolved in DMSO; final concentration of DMSO in reaction = 2%), and H2O (45 μL). The assay mixture was incubated for 1 h at 37 °C, followed by addition of 5 μL of 4-MUS (Km = 1.6 mM for ARSA and 612 μM for ARSB), and incubation for a further 1 h at 37 °C. The reaction was stopped with 100 μL of 1 M Tris (pH = 10.5) and read at 460 nm following excitation at 355 nm in FLUOstar Omega plate reader (BMG Labtech) using Omega data analysis software.

Sulf-2 = target: T2, Sulf-2 (Homo sapiens, UniProt Q8IWU5); test: Inhibition of Sulf-2-catalysed desulfation of 4-MUS to fluorescent MU; conditions: for inhibition at 1000 µM: 1 mM compound, 4-MUS substrate, means of two or more determinations, read-out: Sulf-2% inh @ 1 mM; for IC50: non-linear regression, 7 inhibitor concentrations in duplicate, mean ± SEM
T2 construct: host or cells: 293T cells, transiently transfected
T2 sequence (Q8IWU5 25-870): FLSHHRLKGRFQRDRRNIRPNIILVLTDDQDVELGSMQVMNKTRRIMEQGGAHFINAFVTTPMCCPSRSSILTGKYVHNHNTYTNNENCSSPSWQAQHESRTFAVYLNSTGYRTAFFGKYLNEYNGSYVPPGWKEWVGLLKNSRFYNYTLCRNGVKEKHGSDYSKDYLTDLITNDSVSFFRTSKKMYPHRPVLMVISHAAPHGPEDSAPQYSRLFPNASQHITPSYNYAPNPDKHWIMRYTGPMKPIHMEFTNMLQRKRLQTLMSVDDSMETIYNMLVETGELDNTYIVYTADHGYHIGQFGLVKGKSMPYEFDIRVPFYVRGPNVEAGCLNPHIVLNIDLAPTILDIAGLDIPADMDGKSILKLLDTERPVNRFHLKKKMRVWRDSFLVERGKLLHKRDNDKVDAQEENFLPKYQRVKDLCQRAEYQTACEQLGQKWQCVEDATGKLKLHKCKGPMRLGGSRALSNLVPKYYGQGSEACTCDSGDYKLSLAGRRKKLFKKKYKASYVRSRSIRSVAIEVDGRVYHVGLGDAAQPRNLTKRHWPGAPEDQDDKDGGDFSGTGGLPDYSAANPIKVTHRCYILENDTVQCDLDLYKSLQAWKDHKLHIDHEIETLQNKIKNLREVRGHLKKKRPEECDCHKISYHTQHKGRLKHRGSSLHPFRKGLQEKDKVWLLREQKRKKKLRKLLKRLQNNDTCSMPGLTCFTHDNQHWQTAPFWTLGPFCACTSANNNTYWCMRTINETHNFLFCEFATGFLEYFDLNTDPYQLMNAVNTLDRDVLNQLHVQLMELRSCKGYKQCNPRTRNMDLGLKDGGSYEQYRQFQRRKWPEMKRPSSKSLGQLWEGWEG
Experimental: as §1
1 – Biological assay protocols
Compounds were screened using 4-MUS as a substrate for Sulf-2 according to a protocol described by Morimoto-Tomita et al.1 Briefly 293T cells were transiently transfected with pcDNA3.1/Myc-His(-)-HSulf-2 DNA (Addgene) and TransIT-LT1 Transfection Reagent (Mirus) using a transfection mixture at the ratio 1:3 (µg DNA:
µL transfection reagent) in Opti-MEM I reduced serum medium (Gibco). Conditioned medium containing Sulf-2 was collected after 3 days and bound to HIS-Select Nickel affinity gel (Sigma) overnight at 4 °C. Beads were washed three times with washing buffer containing 50 mM HEPES (pH 7.5), 300 mM NaCl, 0.05% Tween 20, followed by washing once with washing buffer containing no tween. Beads were suspended in 50 mM Hepes (pH 7.5) and used in inhibition assays. 20 μL of bead slurry was incubated with 1 mM compound (in DMSO) plus 10X reaction buffer (500 mM HEPES pH 7.5, 100 mM CaCl2) for 1 h at 37 °C. The reaction was started by the addition of 20 μL of 20 mM 4-MUS (final concentration of 8 mM) and incubated at 37 °C for 1 h. The reaction was stopped with 100 μL 1 M Tris buffer (pH 10.4) and read at 460 nm following excitation at 355 nm in FLUOstar Omega plate reader (BMG Labtech) using Omega data analysis software. […]

aryl sulfatase A (ARSA) = target: T3, aryl sulfatase A (ARSA) (Homo sapiens, UniProt P15289); test: ARSA inhibition assay with 4-MUS substrate; conditions: for inhibition at 1000 µM: 1 mM compound, 4-MUS substrate, means of two or more determinations, read-out: ARSA% inh @ 1 mM
T3 construct: purchased R & D Systems
T3 sequence (P15289 19-507): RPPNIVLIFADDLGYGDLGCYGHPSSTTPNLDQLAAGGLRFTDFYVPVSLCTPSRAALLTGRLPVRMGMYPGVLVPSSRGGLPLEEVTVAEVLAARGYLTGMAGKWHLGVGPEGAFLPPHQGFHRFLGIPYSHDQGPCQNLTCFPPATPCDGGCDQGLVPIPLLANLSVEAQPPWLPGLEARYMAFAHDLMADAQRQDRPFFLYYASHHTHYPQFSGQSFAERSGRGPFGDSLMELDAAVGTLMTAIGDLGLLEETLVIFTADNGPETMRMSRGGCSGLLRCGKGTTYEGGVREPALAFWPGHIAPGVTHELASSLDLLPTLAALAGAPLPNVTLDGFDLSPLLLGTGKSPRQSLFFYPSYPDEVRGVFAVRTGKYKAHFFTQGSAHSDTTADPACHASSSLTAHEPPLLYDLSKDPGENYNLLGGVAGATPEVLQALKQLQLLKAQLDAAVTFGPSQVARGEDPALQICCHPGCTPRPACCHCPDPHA
Experimental: as §1, §2, §3, §4, §5

[1] = non-linear regression, 7 inhibitor concentrations in duplicate, mean ± SEM

Row | Structure (SMILES) | inhibition at 1000 µM (aryl sulfatase B (ARSB)) | inhibition at 1000 µM (Sulf-2) | inhibition at 1000 µM (aryl sulfatase A (ARSA)) | IC50 (aryl sulfatase B (ARSB)) | IC50 (Sulf-2) | IC50 (aryl sulfatase A (ARSA); [1]) | ARSA IC50 (aryl sulfatase A (ARSA); [1]) | ARSA inhibition over concentration range (aryl sulfatase A (ARSA); concentration range 0.025–1 mM, IC50 could not be determined)
1 | COC(=O)c1ccccc1-c1cccc(OS(N)(=O)=O)c1 [Compound 8] | 0% | 20% | 86% |  |  |  |  | 
2 | NS(=O)(=O)Oc1cccc(-c2cccc(C(=O)O)c2)c1 [Compound 9] | 0% | 12% | 59% |  |  |  |  | 
3 | NS(=O)(=O)Oc1cccc(-c2ccc(C(=O)O)cc2)c1 [Compound 10] | 0% | 22% | 85% |  |  |  |  | 
4 | Nc1ccccc1-c1cccc(OS(N)(=O)=O)c1 [Compound 11] | 0% | 21% | 0% |  |  |  |  | 
5 | Nc1cccc(-c2cccc(OS(N)(=O)=O)c2)c1 [Compound 12] | 0% | 20% | 0% |  |  |  |  | 
6 | Nc1ccc(-c2cccc(OS(N)(=O)=O)c2)cc1 [Compound 13] | 0% | 6% | 61% |  |  |  |  | 
7 | NS(=O)(=O)Oc1cccc(-c2ccccc2C(=O)O)c1 [Compound 15] | 0% | 31% | 98% |  |  |  |  | 
8 | Nc1ccccc1Oc1cccc(OS(N)(=O)=O)c1 [Compound 25] | 17% | 28% | 75% |  |  |  |  | 
9 | CC(=O)Nc1ccccc1-c1cccc(OS(N)(=O)=O)c1 [Compound 34] | 0% | 4% | 33% |  |  |  |  | 
10 | CC(=O)Nc1cccc(-c2cccc(OS(N)(=O)=O)c2)c1 [Compound 35] | 33% | 8% | 52% |  |  |  |  | 
11 | CC(=O)Nc1ccc(-c2cccc(OS(N)(=O)=O)c2)cc1 [Compound 36] | 0% | 3% | 0% |  |  |  |  | 
12 | CC(=O)Nc1ccccc1Oc1cccc(OS(N)(=O)=O)c1 [Compound 37] | 48% | 11% | 29% |  |  |  |  | 
13 | NS(=O)(=O)Oc1cccc(-c2cccc(NS(=O)(=O)O)c2)c1 [Compound 54] | 0% | 31% | 0% |  |  |  |  | 
14 | NS(=O)(=O)Oc1cccc(-c2ccccc2NS(=O)(=O)O)c1 [Compound 62] | 0% | 37% | 26% |  |  |  |  | 
15 | NS(=O)(=O)Oc1cccc(Oc2ccccc2C(=O)O)c1 [Compound 73] | 0% | 10% | 44% |  |  |  |  | 
16 | NS(=O)(=O)Oc1cccc(-c2ccccc2)c1 [Compound 76] | 65% | 38% | 14% |  |  |  |  | 
17 | CN(C)S(=O)(=O)Oc1cccc(-c2ccccc2)c1 [Compound 77] |  | 0% |  |  |  |  |  | 
18 | O=S(=O)(Nc1cccc(-c2ccccc2)c1)OCC(Cl)(Cl)Cl [Compound 79] | 61% | 100% | 0% | 30 ± 11 µM | 254 ± 3 µM |  | No inhibition | 
19 | O=S(=O)(OCC(Cl)(Cl)Cl)Oc1cccc(-c2ccccc2)c1 [Compound 81] | 85% | 1% | 70% |  |  |  |  | 

Second part, led by results:

Row | inhibition at 1000 µM (aryl sulfatase B (ARSB)) | inhibition at 1000 µM (Sulf-2) | inhibition at 1000 µM (aryl sulfatase A (ARSA)) | IC50 (aryl sulfatase B (ARSB)) | IC50 (Sulf-2) | IC50 (aryl sulfatase A (ARSA); [1]) | ARSA IC50 (aryl sulfatase A (ARSA); [1]) | Structure (SMILES) | ARSA inhibition over concentration range (aryl sulfatase A (ARSA); concentration range 0.025–1 mM, IC50 could not be determined)
20 | 0% | 31% | 75% |  |  |  |  | Nc1cccc(Oc2cccc(OS(N)(=O)=O)c2)c1 [Compound 26] | 
21 | 0% | 14% | 75% |  |  |  |  | Nc1ccc(Oc2cccc(OS(N)(=O)=O)c2)cc1 [Compound 27] | 
22 | 0% | 10% | 57% |  |  |  |  | CC(=O)Nc1cccc(Oc2cccc(OS(N)(=O)=O)c2)c1 [Compound 38] | 
23 | 0% | 14% | 45% |  |  |  |  | CC(=O)Nc1ccc(Oc2cccc(OS(N)(=O)=O)c2)cc1 [Compound 39] | 
24 | 67% | 99% | 92% | 130 ± 6 µM | 167 ± 5 µM | 55 ± 11 µM |  | NS(=O)(=O)Oc1cccc(-c2cccc(NS(=O)(=O)OCC(Cl)(Cl)Cl)c2)c1 [Compound 50] | 
25 | 68% | 96% | 99% | 101 ± 8 µM | 566 ± 28 µM | 91 ± 4 µM |  | NS(=O)(=O)Oc1cccc(-c2ccc(NS(=O)(=O)OCC(Cl)(Cl)Cl)cc2)c1 [Compound 51] | 
26 | 96% | 100% | 100% |  |  |  |  | NS(=O)(=O)Oc1cccc(Oc2cccc(NS(=O)(=O)OCC(Cl)(Cl)Cl)c2)c1 [Compound 52] | 
27 | 86% | 98% | 96% | 116 ± 10 µM | 390 ± 11 µM | 108 ± 2 µM |  | NS(=O)(=O)Oc1cccc(Oc2ccc(NS(=O)(=O)OCC(Cl)(Cl)Cl)cc2)c1 [Compound 53] | 
28 | 0% | 4% | 0% |  |  |  |  | NS(=O)(=O)Oc1cccc(-c2ccc(NS(=O)(=O)O)cc2)c1 [Compound 55] | 
29 | 85% | 58% | 95% |  |  |  |  | NS(=O)(=O)Oc1cccc(Oc2cccc(NS(=O)(=O)O)c2)c1 [Compound 56] | 
30 | 77% | 13% | 34% |  |  |  |  | NS(=O)(=O)Oc1cccc(Oc2ccc(NS(=O)(=O)O)cc2)c1 [Compound 57] | 
31 | 0% | 10% | 63% |  |  |  |  | NS(=O)(=O)Oc1cccc(-c2ccccc2N(S(=O)(=O)OCC(Cl)(Cl)Cl)S(=O)(=O)OCC(Cl)(Cl)Cl)c1 [Compound 60] | 
32 | 40% | 18% | 82% |  |  |  |  | NS(=O)(=O)Oc1cccc(Oc2ccccc2N(S(=O)(=O)OCC(Cl)(Cl)Cl)S(=O)(=O)OCC(Cl)(Cl)Cl)c1 [Compound 61] | 
33 | 93% | 56% | 54% |  |  |  |  | NS(=O)(=O)Oc1cccc(Oc2ccccc2NS(=O)(=O)O)c1 [Compound 63] | 
34 | 0% | 30% | 49% |  |  |  |  | NS(=O)(=O)Oc1cccc(Oc2cccc(C(=O)O)c2)c1 [Compound 74] | 
35 | 0% | 23% | 33% |  |  |  |  | NS(=O)(=O)Oc1cccc(Oc2ccc(C(=O)O)cc2)c1 [Compound 75] | 
36 |  | 32% |  |  |  |  |  | NS(=O)(=O)Oc1cccc(Oc2ccccc2)c1 [Compound 78] | 
37 | 99% | 99% | 74% | 34 ± 9 µM | 298 ± 3 µM |  |  | O=S(=O)(Nc1cccc(Oc2ccccc2)c1)OCC(Cl)(Cl)Cl [Compound 80] | Concentration-dependent inhibition was not observed
